Structures are written as SMILES.

The target of assay [1] is Activin receptor type-2B (Homo sapiens) (UniProt Q13705). Description: Selectivity interaction (Ambit KINOMEscan and KiNATiv profiling in Jurkat cells) EUB0000090b ACVR2B. The assay is classed as cell-based. The note with it: at 1 µM.
For assay [2], the target named is T1, Serine/threonine-protein kinase 4 (Homo sapiens) (UniProt Q13043).
T1 sequence (whole entry): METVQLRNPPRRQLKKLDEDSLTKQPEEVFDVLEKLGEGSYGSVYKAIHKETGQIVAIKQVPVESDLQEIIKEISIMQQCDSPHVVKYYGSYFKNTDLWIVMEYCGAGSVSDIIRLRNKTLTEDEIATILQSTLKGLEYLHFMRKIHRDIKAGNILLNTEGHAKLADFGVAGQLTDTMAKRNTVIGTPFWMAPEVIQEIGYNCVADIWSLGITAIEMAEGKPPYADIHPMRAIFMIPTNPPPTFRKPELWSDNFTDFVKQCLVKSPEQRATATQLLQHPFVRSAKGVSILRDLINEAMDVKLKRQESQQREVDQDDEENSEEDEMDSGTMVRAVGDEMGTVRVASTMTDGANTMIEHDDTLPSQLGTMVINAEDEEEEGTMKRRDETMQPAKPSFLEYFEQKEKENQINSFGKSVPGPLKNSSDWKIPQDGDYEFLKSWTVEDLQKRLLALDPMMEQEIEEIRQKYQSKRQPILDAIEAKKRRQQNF
Description: Selectivity interaction (SelectScreen profiling (Invitrogen)) EUB0000607a STK4. The settings on record: at 2 µM.

Assay [3] concerns the target LIM domain kinase 1 (Homo sapiens) (UniProt P53667). The note with it: at 10 µM.
Assay [4] concerns the target Glycogen synthase kinase-3 beta (Homo sapiens, UniProt P49841). Description: Selectivity interaction (KinomeScan (DiscoverX)) EUB0000229b GSK3B. The settings on record: at 10 µM.
Assay [5] deals with T2, Ephrin type-A receptor 8 (Homo sapiens) (UniProt P29322).
T2 sequence (whole entry): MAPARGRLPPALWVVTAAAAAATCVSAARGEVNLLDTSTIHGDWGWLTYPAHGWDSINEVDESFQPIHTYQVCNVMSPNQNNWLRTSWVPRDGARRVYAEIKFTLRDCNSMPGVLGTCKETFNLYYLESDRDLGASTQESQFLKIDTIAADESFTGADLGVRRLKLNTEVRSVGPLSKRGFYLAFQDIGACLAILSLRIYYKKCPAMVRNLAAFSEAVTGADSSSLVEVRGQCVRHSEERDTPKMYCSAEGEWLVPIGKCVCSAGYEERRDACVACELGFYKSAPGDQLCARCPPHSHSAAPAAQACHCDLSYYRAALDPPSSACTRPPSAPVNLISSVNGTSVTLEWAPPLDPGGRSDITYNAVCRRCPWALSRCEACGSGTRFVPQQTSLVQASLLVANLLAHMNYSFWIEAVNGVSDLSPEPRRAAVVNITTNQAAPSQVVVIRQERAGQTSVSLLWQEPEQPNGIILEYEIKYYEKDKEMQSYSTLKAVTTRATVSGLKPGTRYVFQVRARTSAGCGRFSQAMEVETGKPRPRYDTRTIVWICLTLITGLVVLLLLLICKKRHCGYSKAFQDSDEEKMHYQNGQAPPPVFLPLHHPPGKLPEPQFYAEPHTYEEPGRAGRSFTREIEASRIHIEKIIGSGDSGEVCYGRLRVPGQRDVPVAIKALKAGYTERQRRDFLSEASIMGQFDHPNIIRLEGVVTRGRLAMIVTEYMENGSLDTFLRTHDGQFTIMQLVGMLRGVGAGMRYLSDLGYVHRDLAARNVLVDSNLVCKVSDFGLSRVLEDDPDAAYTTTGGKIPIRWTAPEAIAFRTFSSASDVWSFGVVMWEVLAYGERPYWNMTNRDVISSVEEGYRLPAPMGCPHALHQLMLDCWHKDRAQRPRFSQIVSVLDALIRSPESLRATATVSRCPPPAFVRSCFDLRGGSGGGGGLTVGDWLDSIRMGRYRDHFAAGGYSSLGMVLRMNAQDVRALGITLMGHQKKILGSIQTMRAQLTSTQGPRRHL
In words: Selectivity interaction (KinomeScan (DiscoverX)) EUB0001619a EPHA8. The note with it: at 1 µM.

Assay [6] concerns the target Ribosomal protein S6 kinase alpha-3 (Homo sapiens, UniProt P51812). Description: Selectivity interaction (ActivX KiNativ screen (kinase selectivity in THP-1 cell lysates)) EUB0000639a RPS6KA3. In kind it is subcellular. The note with it: lysate, at 1 µM.
The target in assay [7] is Mitogen-activated protein kinase 14 (Homo sapiens, UniProt Q16539). Description: Selectivity interaction (ActivX KiNativ screen (kinase selectivity in THP-1 cell lysates)) EUB0000639a MAPK14. The assay is classed as subcellular. The note with it: lysate, at 0.2 µM.
Mitogen-activated protein kinase 14, sequence (Q16539 whole entry): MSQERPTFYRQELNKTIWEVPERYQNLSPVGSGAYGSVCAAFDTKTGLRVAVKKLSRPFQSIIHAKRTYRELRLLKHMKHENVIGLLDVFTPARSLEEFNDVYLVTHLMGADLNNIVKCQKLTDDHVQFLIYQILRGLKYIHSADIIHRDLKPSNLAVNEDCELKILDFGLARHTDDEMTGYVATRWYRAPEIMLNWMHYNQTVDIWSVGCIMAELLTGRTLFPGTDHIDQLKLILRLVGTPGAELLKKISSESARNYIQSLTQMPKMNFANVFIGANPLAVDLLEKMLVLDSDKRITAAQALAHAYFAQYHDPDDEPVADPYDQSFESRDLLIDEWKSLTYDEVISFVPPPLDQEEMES
The target of assay [8] is Tyrosine-protein kinase Fgr (Homo sapiens) (UniProt P09769). Description: Selectivity interaction (KinomeScan (DiscoverX)) EUB0000092b FGR. The settings on record: at 10 µM.
Tyrosine-protein kinase Fgr (Homo sapiens), sequence (P09769 2-529 limits assumed): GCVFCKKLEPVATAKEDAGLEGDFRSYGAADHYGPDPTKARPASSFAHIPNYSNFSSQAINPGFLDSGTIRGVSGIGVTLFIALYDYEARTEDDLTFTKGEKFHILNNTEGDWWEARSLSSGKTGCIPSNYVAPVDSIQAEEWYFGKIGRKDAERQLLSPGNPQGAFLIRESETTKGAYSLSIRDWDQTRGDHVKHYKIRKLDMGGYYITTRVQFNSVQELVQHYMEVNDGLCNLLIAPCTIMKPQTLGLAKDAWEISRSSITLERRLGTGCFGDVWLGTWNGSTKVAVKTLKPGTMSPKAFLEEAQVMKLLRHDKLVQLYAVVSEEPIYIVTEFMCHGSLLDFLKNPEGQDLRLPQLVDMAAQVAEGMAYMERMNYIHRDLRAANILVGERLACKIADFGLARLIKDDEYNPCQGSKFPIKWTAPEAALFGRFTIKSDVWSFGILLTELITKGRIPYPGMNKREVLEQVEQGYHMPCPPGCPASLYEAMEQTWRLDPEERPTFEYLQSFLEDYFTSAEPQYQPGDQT
Assay [9] deals with Serine/threonine-protein kinase 16 (Homo sapiens, UniProt O75716). Description: Selectivity interaction (KinomeScan (DiscoverX)) EUB0001550a STK16. The settings on record: at 1 µM.
Serine/threonine-protein kinase 16, sequence (O75716 whole entry): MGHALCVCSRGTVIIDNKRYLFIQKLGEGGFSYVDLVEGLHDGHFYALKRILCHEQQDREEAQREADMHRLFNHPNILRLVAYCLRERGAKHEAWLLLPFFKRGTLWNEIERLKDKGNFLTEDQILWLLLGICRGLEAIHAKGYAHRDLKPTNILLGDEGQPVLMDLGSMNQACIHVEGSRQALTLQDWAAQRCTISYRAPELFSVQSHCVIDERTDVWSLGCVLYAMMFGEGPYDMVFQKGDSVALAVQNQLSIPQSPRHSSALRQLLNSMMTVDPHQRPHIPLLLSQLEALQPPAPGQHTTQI

LIM domain kinase 1 (Homo sapiens), sequence (P53667 whole entry, looked up, the tested form may be a part): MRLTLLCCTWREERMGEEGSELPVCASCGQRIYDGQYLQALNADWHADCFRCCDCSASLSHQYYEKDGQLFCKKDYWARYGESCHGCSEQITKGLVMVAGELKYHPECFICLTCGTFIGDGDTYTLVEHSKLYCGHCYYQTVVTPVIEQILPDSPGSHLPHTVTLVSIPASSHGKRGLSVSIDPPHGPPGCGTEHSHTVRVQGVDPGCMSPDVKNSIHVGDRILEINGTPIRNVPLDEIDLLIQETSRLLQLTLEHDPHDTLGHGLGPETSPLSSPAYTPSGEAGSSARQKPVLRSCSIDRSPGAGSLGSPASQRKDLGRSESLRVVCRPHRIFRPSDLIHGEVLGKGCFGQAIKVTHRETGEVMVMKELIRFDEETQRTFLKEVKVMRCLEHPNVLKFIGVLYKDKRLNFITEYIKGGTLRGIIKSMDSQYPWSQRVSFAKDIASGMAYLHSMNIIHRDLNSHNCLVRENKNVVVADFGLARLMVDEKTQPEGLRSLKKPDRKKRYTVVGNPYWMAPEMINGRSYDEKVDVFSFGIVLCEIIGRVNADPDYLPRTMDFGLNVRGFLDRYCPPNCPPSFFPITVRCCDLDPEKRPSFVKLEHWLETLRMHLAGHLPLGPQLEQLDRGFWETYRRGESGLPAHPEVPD
Glycogen synthase kinase-3 beta, sequence (P49841 whole entry, looked up): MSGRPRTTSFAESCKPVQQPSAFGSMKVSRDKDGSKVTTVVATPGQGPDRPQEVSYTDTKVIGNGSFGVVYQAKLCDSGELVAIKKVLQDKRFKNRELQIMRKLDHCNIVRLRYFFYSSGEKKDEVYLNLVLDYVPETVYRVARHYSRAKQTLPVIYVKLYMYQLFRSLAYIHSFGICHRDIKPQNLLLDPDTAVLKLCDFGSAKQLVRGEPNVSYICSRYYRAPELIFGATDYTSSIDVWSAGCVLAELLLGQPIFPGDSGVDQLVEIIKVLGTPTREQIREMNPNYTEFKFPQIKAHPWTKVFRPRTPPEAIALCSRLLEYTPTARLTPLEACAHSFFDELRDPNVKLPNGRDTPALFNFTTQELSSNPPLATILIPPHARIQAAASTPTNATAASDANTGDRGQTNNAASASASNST
Activin receptor type-2B (Homo sapiens), sequence (Q13705 whole entry): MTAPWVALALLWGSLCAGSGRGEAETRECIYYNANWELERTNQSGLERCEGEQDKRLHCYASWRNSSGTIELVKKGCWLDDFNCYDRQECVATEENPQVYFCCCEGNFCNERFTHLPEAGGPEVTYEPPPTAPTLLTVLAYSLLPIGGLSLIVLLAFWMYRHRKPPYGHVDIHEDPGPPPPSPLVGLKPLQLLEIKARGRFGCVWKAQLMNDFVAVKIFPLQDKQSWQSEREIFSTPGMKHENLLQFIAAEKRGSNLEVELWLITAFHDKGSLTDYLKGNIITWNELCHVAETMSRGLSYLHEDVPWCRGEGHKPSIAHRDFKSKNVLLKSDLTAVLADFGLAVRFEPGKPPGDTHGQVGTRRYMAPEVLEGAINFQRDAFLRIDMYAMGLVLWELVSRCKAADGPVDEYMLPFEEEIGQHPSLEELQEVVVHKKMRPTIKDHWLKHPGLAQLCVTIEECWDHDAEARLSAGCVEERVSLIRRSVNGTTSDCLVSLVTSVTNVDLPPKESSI
Ribosomal protein S6 kinase alpha-3, sequence (P51812 whole entry): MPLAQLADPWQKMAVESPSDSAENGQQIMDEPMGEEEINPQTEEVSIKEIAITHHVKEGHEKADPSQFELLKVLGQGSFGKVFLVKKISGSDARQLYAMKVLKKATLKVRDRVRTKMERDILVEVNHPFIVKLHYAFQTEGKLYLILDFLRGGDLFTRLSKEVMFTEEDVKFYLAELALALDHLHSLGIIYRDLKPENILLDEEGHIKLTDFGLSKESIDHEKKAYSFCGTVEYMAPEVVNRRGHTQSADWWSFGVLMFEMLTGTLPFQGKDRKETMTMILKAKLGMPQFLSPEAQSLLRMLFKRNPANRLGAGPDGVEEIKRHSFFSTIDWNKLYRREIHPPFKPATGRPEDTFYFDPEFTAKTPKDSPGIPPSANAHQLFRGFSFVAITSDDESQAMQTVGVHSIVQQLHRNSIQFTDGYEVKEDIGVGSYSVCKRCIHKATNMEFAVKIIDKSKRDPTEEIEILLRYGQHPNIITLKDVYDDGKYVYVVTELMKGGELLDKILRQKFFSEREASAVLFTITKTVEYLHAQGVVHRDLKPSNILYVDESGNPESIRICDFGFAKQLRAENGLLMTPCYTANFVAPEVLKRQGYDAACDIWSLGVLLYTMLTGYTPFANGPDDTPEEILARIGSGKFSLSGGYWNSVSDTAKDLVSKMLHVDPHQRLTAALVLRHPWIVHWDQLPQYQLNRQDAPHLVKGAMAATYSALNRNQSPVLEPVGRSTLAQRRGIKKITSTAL

The compound `CN(C)C/C=C/C(=O)Nc1ccc(C(=O)N2CCCC(Nc3ncc(Cl)c(-c4c[nH]c5ccccc45)n3)C2)cc1` (centres undefined) yielded a % of control in assay [1] of 77%.

Turning to `CNC(=O)Nc1ccc(-c2nc(N3CC4CCC(C3)O4)c3cnn(C4CCC5(CC4)OCCO5)c3n2)cc1`, the % of inhibition in [2] was found to be 12%.

The compound `Cc1cc([C@@H](C)Nc2ccccc2C(=O)O)c2nc(N3CCOCC3)cc(=O)n2c1` [AZD-6482] registered a % of control in assay [3] of 100%.

`COc1cc(N(C)c2ccnc3ccc(C(F)(F)F)cc23)cc(OC)c1OC` showed a % binding in assay [4] of 81%.

In assay [5], `N#Cc1cccc(-c2c[nH]c3ncnc(N4CCOCC4)c23)c1` came in with a % of control of 100%.

`CC[C@@H]1[C@H](F)C(=O)N[C@@H]1COc1nccc2cc(C(N)=O)c(OC)cc12` [ZIMLOVISERTIB]: the results for the % of inhibition in assay [6] and in assay [7] were 6.6% and -1.8%, respectively.

As for `CCC(=O)N1CCN(c2ccc(-n3c(=O)ccc4cnc5ccc(-c6cnc7ccccc7c6)cc5c43)cc2C(F)(F)F)CC1`, the % of control in assay [8] was 78%.

For the compound `CN(C)CC#Cc1ccc2[nH]c3c(c2c1)-c1nc(N)ncc1CCC3`, the % of control in assay [9] amounted to 14%.
